Toxic doses and inconclusive results are not listed.
System: P388 leukemia ip, CD2F1 mice, survival T/C
Test: NCI In Vivo Anticancer Drug Screen. Data for tumor model P388 Leukemia (intraperitoneal) in CD2F1 (CDF1) mice
Conditions: endpoint: median survival time, higher = longer survival
Procedure, shortened: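 Mice carrying the transplanted tumor received test compound or vehicle. Survival was recorded in each group, and the value is the treated-group measurement divided by that of the vehicle-treated control group.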

[1] = dose: 60.0 mg/kg/injection, schedule: Q01DX005 (ip), vehicle: saline with Tween-80
[2] = dose: 120.0 mg/kg/injection, schedule: Q01DX005 (ip), vehicle: saline with Tween-80
[3] = dose: 240.0 mg/kg/injection, schedule: Q01DX005 (ip), vehicle: saline with Tween-80
[4] = dose: 100.0 mg/kg/injection, schedule: Q01DX001 (ip), vehicle: saline
[5] = dose: 200.0 mg/kg/injection, schedule: Q01DX001 (ip), vehicle: saline
[6] = dose: 400.0 mg/kg/injection, schedule: Q01DX001 (ip), vehicle: saline
[7] = dose: 50.0 mg/kg/injection, schedule: Q01DX005 (ip), vehicle: Klucel (hydroxypropylcellulose) (HPC)
[8] = dose: 100.0 mg/kg/injection, schedule: Q01DX005 (ip), vehicle: Klucel (hydroxypropylcellulose) (HPC)
[9] = dose: 200.0 mg/kg/injection, schedule: Q01DX005 (ip), vehicle: Klucel (hydroxypropylcellulose) (HPC)

How did the T/C (dose: 100.0 mg/kg/injection, schedule: Q04DX002 (ip), vehicle: saline) turn out when `COc1ccc(C(=O)CCS(=O)O)cc1` was run?
Its T/C is 100 % of control.

And the T/C (dose: 200.0 mg/kg/injection, schedule: Q04DX002 (ip), vehicle: saline)?
The T/C was 100 % of control.

And the T/C (dose: 400.0 mg/kg/injection, schedule: Q04DX002 (ip), vehicle: saline)?
Its T/C is 99 % of control.

Which results are given for `COC(=O)/C=C(\CCl)N=[N+]=[N-]`?
T/C [1]: 108 % of control; T/C [2]: 109 % of control; T/C [3]: 107 % of control

For `CCN(CC)c1c(C)c(C(=O)OC)nn1-c1ccccc1`, which T/C [1] is on record?
Its T/C is 107 % of control.

What about the T/C [2] of the same compound?
The T/C was 104 % of control.

And the T/C [3]?
Its T/C is 96 % of control.

`NC(N)=N/N=C/COc1cccnc1` was tested. Which T/C [1] did it give?
The T/C was 97 % of control.

What about the T/C [2] of the same compound?
The T/C was 100 % of control.

What about the T/C [3] of the same compound?
Its T/C is 97 % of control.

Which T/C (dose: 6.25 mg/kg/injection, schedule: Q04DX002 (ip), vehicle: saline with Tween-80) does the source give for `CN=C(N)NN=C(c1ccc(Cl)cc1)c1ccc(Cl)cc1` here?
The T/C was 101 % of control.

And the T/C (dose: 12.5 mg/kg/injection, schedule: Q04DX002 (ip), vehicle: saline with Tween-80)?
Its T/C is 102 % of control.

And the T/C (dose: 25.0 mg/kg/injection, schedule: Q04DX002 (ip), vehicle: saline with Tween-80)?
Its T/C is 158 % of control.

Which T/C [4] does the source give for `COc1cc(CC(NC(C)=O)C(=O)O)cc(OC)c1OC` (stereo unspecified) here?
The T/C was 105 % of control.

What about the T/C [5] of the same compound?
Its T/C is 99 % of control.

And the T/C [6]?
Its T/C is 100 % of control.

Which results are given for `Cc1ccc(S(=O)(=O)/N=C2\C=CC=C\C2=C2\Sc3ccccc3N2C)cc1`?
T/C (dose: 100.0 mg/kg/injection, schedule: Q04DX003 (ip), vehicle: saline): 102 % of control; T/C (dose: 200.0 mg/kg/injection, schedule: Q04DX003 (ip), vehicle: saline): 99 % of control; T/C (dose: 400.0 mg/kg/injection, schedule: Q04DX003 (ip), vehicle: saline): 95 % of control

How did the T/C (dose: 50.0 mg/kg/injection, schedule: Q01DX009 (ip), vehicle: saline with Tween-80) turn out when `O=C(Nc1cccc(Cl)c1)Nc1ccc[nH]c1=O` was run?
The T/C was 101 % of control.

And the T/C (dose: 100.0 mg/kg/injection, schedule: Q01DX009 (ip), vehicle: saline with Tween-80)?
Its T/C is 109 % of control.

What about the T/C (dose: 200.0 mg/kg/injection, schedule: Q01DX009 (ip), vehicle: saline with Tween-80) of the same compound?
The T/C was 109 % of control.

Which T/C (dose: 50.0 mg/kg/injection, schedule: Q01DX009 (ip), vehicle: saline) does the source give for `CCn1c(O)c(N=NC(=S)c2ccc3ccccc3n2)c2ccccc21` here?
Its T/C is 104 % of control.

And the T/C (dose: 100.0 mg/kg/injection, schedule: Q01DX009 (ip), vehicle: saline)?
The T/C was 96 % of control.

And the T/C (dose: 200.0 mg/kg/injection, schedule: Q01DX009 (ip), vehicle: saline)?
The T/C was 86 % of control.

How did the T/C [7] turn out when `CC1(C2(C)CC2(Br)Br)CC1(Br)Br` (stereo unspecified) was run?
The T/C was 101 % of control.

And the T/C [8]?
Its T/C is 102 % of control.

What about the T/C [9] of the same compound?
The T/C was 114 % of control.

For `CCCCCCCCCCCCCCCCOS(=O)(=O)O` (tested in a mixture with another compound), which T/C (dose: 20.0 mg/kg/injection, schedule: Q01DX009 (ip), vehicle: saline with Tween-80) is on record?
The T/C was 99 % of control.

What about the T/C (dose: 40.0 mg/kg/injection, schedule: Q01DX009 (ip), vehicle: saline with Tween-80) of the same compound?
The T/C was 92 % of control.

How did the T/C [4] turn out when `CC(=O)NC1=C(O)C2C(c3ccc(C)cc3)C(C#N)C(=O)N2C1=O` (stereo unspecified) was run?
Its T/C is 105 % of control.

And the T/C [5]?
The T/C was 97 % of control.

And the T/C [6]?
Its T/C is 99 % of control.

Which results are given for `COC1=CC(=N/Cl)/C=CC/1=N/Cl`?
T/C (dose: 6.25 mg/kg/injection, schedule: Q01DX005 (ip), vehicle: saline): 115 % of control; T/C (dose: 12.5 mg/kg/injection, schedule: Q01DX005 (ip), vehicle: saline): 110 % of control; T/C (dose: 25.0 mg/kg/injection, schedule: Q01DX005 (ip), vehicle: saline): 115 % of control

With `Nc1ncnc2c1ncn2CCOCC(O)CO` (stereo unspecified) as the compound, how does the T/C [1] read?
The T/C was 100 % of control.

What about the T/C [2] of the same compound?
Its T/C is 95 % of control.

And the T/C [3]?
Its T/C is 93 % of control.

For `O=C1CSC(c2c(F)cccc2Cl)N1c1cnccn1` (stereo unspecified), which T/C (dose: 25.0 mg/kg/injection, schedule: Q01DX005 (ip), vehicle: Klucel (hydroxypropylcellulose) (HPC)) is on record?
The T/C was 99 % of control.

And the T/C [7]?
Its T/C is 102 % of control.

What about the T/C [8] of the same compound?
The T/C was 101 % of control.

And the T/C [9]?
Its T/C is 106 % of control.

With `CC1(C)Oc2cc3oc(=O)ccc3c3c2C2C1CCC(C)(O3)C2O` (stereo unspecified) as the compound, how does the T/C [7] read?
Its T/C is 102 % of control.

And the T/C [8]?
Its T/C is 96 % of control.

What about the T/C [9] of the same compound?
The T/C was 105 % of control.

For `O=C1CCCCC(=O)Nc2ccc3nc4ccccc4c(c3c2)SCCCCCCCCSc2c3ccccc3nc3ccc(cc23)N1`, which T/C [1] is on record?
The T/C was 101 % of control.

What about the T/C [2] of the same compound?
Its T/C is 110 % of control.

What about the T/C [3] of the same compound?
The T/C was 91 % of control.

Source: PubChem BioAssay AID330 (DTP/NCI, 2004)
